Measured values reported in patent publication US20050158805A1, “Toxicity test” (priority 2002, published 2005).
Blank lines part the entries; values can stand above or below the compound they belong to.

Experiments:
liver spheroids = experiment: Spheroid cell spreading inhibition test (SCSIT) using fresh liver spheroids; assay type: cell-based, male Wistar rats; details: for SCSIT result (spheroid cell spreading inhibition): fresh liver spheroids, batches A-C; for concentrations at which liver spheroid cell spreading is inhibited: liver spheroids, read from tables
Description: (§1) The inventors have developed a cell spreading inhibition test based on the observed spheroid cell growth, or “spreading” of cells in spheroids when the spheroids are grown on a suitable surface and at static state i.e. without shaking. […] This inhibition of cell spreading provides an indicator of toxicity.
(§2) According to a first aspect of the invention, there is provided an in vitro toxicity assay comprising: • a) exposing a spheroid sample to a selected concentration of a compound to be assayed; • b) incubating the spheroid sample for a suitable period of time; and • c) observing if spheroid cell spreading inhibition takes place. […] However, if there is observable cell spreading from one or more of the spheroids in the sample, this is a cell spreading inhibition negative (−) result.
(§3) In the following examples, fresh liver or HepG2 spheroids were used.
Liver spheroids were prepared from the liver of male Wistar rats by a two-step collagenase perfusion method described by Seglen P.O. ((1976). Preparation of isolated rat liver cells. Methods Cell. Biol. 13, 29-38) and modified by Lazar, A.; Peshwa, M. V., Wu, F. J., Chi, C. M., Cerra, F. B., and Hu, W. S. (1995). Extended liver-specific functions of procine hepatocyte spheroids entrapped in collagen gel. In Vitro Cell Biol Anim. 31, 340-346). Viability of the isolated liver cells was determined by tyrpan blue dye exclusion i.e. an aliquot of isolated liver cells was mixed with an equal volume of trypan blue dye (1.0% w/v in isotonic saline) and incubated at room temperature for a minimum period of 5 minutes. Only isolated liver cell preparations with viability above 80% were used to prepare liver spheroids. The cell suspension was diluted with culture medium (hepatocyte medium supplemented with 5% FCS, […] L-glutamine, 2 ng/ml insulin, 100 U/ml penicillin and 100 μg/ml streptomycin sulfate) to give a cell density of 5×10^5 cells/ml. The diluted cell suspension was dispersed into 6-well plates, 3 ml/well. The plates were incubated at 37° C., in a 5% CO2 incubator on a gyrotatory shaker (New Brunswick) at an initial rotation speed of 85 rpm for the first 24 hr and 77 rpm thereafter. The plates were rotated at this speed for the duration of the study (up to 45 days, but typically 2-10 days). 1.5 ml of old medium was replaced with 2.0 ml fresh medium for each well every other day. Media exchange was carried out over the duration of the study (up to 45 days, but typically 2-10 days).
(§4) 3 to 5 freshly prepared spheroids were transferred into each well of a 24 well plate and exposed to galactosamine at various concentrations as detailed in Tables 1 and 2. Two wells were used for each concentration of galactosamine. The spheroids were incubated in Hepatocyte medium (Sigma) supplemented with 10-15% FCS, […] L-glutamine, 100 U/ml penicillin and 100 μg/ml streptomycim sulfate, and placed in a 5% CO2 incubator at 37° C. and the effects on spheroid cell spreading inhibition observed after 48 hours exposure of the cells to galactosamine: […]

HepG2 spheroids = experiment: Spheroid cell spreading inhibition test (SCSIT) using fresh HepG2 spheroids; assay type: cell-based, Human; details: for SCSIT result (spheroid cell spreading inhibition): fresh HepG2 spheroids, batches A-C; for concentrations at which HepG2 spheroid cell spreading is inhibited: HepG2 spheroids, read from tables
Description: as §1, §2, §3
HepG2 cell line (Human Hepatocyte Carinomal cells, from ECACC) was cultured as a monolayer in a 75 cm^2 flask at an initial density of 10^2 cells/cm^2 in a culture medium containing MEM (Sigma) supplemented with 10% FBS, 200 nM L-Glutamine, 100 U/ml pencillin and 100 μg/ml streptomycin (GibcoBril). HepG2 cells of confluent flasks were detached by trypsin and pooled together to be counted by trypan blue dye excretion. The cell suspension was diluted with culture medium (MEM supplemented with 5% FBS, […] L-glutamine, 100 U/ml penicillin and 100 μg/ml streptomycin) to give 1×10^6 cell/ml cell suspension. The cell suspension was plated into 6-well plates, 3 ml/well. The plate was placed on a gyrotatory shaker (New Brunswick) at 83 rpm in a 37° C. CO2 incubator for the first 24 h, and then the rotation speed reduced to 77 rpm. After 6 DIV culture, spheroids were ready for use.
as §4

- SCSIT result (spheroid cell spreading inhibition) (liver spheroids; 4 mM, 48 hours exposure): −
- SCSIT result (spheroid cell spreading inhibition) (liver spheroids; 10 mM, 48 hours exposure): −
- SCSIT result (spheroid cell spreading inhibition) (liver spheroids; 16 mM, 48 hours exposure): −
- SCSIT result (spheroid cell spreading inhibition) (liver spheroids; 20 mM, 48 hours exposure): +
- SCSIT result (spheroid cell spreading inhibition) (liver spheroids; 40 mM, 48 hours exposure): +
- spheroid cell spreading inhibition (FIG. 2C) (liver spheroids; liver spheroid, 40 mM, 48 hours after exposure): spheroid cell spreading was inhibited
- concentrations at which liver spheroid cell spreading is inhibited (liver spheroids): ≥ 20000 µM
- SCSIT result (spheroid cell spreading inhibition) (HepG2 spheroids; 4 mM, 48 hours exposure): −
- SCSIT result (spheroid cell spreading inhibition) (HepG2 spheroids; 10 mM, 48 hours exposure): −
- SCSIT result (spheroid cell spreading inhibition) (HepG2 spheroids; 16 mM, 48 hours exposure): +
- SCSIT result (spheroid cell spreading inhibition) (HepG2 spheroids; 20 mM, 48 hours exposure): +
- SCSIT result (spheroid cell spreading inhibition) (HepG2 spheroids; 40 mM, 48 hours exposure): +
- concentrations at which HepG2 spheroid cell spreading is inhibited (HepG2 spheroids): ≥ 16000 µM
SMILES: N[C@H]1C(O)O[C@H](CO)[C@H](O)[C@@H]1O (stereo partly drawn) [galactosamine]
- spheroid cell spreading inhibition (FIG. 2B) (liver spheroids; liver spheroid, 16 mM, 48 hours after exposure): no spheroid cell spreading inhibition is observed

- SCSIT result (spheroid cell spreading inhibition) (liver spheroids; 5 μM): −
- SCSIT result (spheroid cell spreading inhibition) (liver spheroids; 50 μM): −
- SCSIT result (spheroid cell spreading inhibition) (liver spheroids; 500 μM): −
- SCSIT result (spheroid cell spreading inhibition) (liver spheroids; 5 mM): −
- SCSIT result (spheroid cell spreading inhibition) (liver spheroids; 50 mM): +
- spheroid cell spreading inhibition (FIG. 5B) (liver spheroids; liver spheroid, 50 mM, 48 hours after exposure): spheroid cell spreading was inhibited
- concentrations at which liver spheroid cell spreading is inhibited (liver spheroids): ≥ 50000 µM
- SCSIT result (spheroid cell spreading inhibition) (HepG2 spheroids; 5 μM): −
- SCSIT result (spheroid cell spreading inhibition) (HepG2 spheroids; 50 μM): −
- SCSIT result (spheroid cell spreading inhibition) (HepG2 spheroids; 500 μM): −
- SCSIT result (spheroid cell spreading inhibition) (HepG2 spheroids; 5 mM): −
- SCSIT result (spheroid cell spreading inhibition) (HepG2 spheroids; 50 mM): +
- concentrations at which HepG2 spheroid cell spreading is inhibited (HepG2 spheroids): ≥ 50000 µM
SMILES: CC(=O)Nc1ccc(O)cc1 [paracetamol]
- spheroid cell spreading inhibition (FIG. 5A) (liver spheroids; liver spheroid, 5 mM, 48 hours after exposure): no spheroid cell spreading inhibition is observed

- SCSIT result (spheroid cell spreading inhibition) (liver spheroids; 0.1 μM): −
- SCSIT result (spheroid cell spreading inhibition) (liver spheroids; 1 μM): −
- SCSIT result (spheroid cell spreading inhibition) (liver spheroids; 10 μM): −
- SCSIT result (spheroid cell spreading inhibition) (liver spheroids; 100 μM): −
- SCSIT result (spheroid cell spreading inhibition) (liver spheroids; 1000 μM): +
- spheroid cell spreading inhibition (FIG. 4B) (liver spheroids; liver spheroid, 1000 μM, 48 hours after exposure): spheroid cell spreading was inhibited
- concentrations at which liver spheroid cell spreading is inhibited (liver spheroids): ≥ 1000 µM
- SCSIT result (spheroid cell spreading inhibition) (HepG2 spheroids; 0.1 μM): −
- SCSIT result (spheroid cell spreading inhibition) (HepG2 spheroids; 1 μM): −
- SCSIT result (spheroid cell spreading inhibition) (HepG2 spheroids; 10 μM): −
- SCSIT result (spheroid cell spreading inhibition) (HepG2 spheroids; 100 μM): −
- SCSIT result (spheroid cell spreading inhibition) (HepG2 spheroids; 1000 μM): +
- concentrations at which HepG2 spheroid cell spreading is inhibited (HepG2 spheroids): ≥ 1000 µM
SMILES: O=C(O)Cc1ccccc1Nc1c(Cl)cccc1Cl [diclofenac]
- spheroid cell spreading inhibition (FIG. 4A) (liver spheroids; liver spheroid, 100 μM, 48 hours after exposure): no spheroid cell spreading inhibition is observed
